In US10383955B2, “Human mast cell lines, preparation and uses” (CENTRE NATIONAL DE LA RECHERCHE SCIENTIFIQUE, priority 2011, dated 2019):
“Also recorded” adds a separate entry of the source.

Key:
[1] = tested on: cells of the ROSA KIT WT line; experiment: β-hexosaminidase release after stimulation; format: cell-based, human; conditions: cells treated with IL-4 20 ng/ml and IgE 2 μg/ml; anti-IgE 5 μg/ml or calcium ionophore 1 μmol/l, 1 hour
Procedure: The activation of the cells of the ROSA KIT WT line was also measured by determining the released β-hexosaminidase activity. ROSA cells treated with IL-4 (20 ng/ml) and IgE (2 μg/ml) are subsequently activated for 1 hour at 37° C. in the presence of 5% CO2, with the anti-IgE antibody (5 μg/ml) or with the calcium ionophore (Cai) (1 μmol/l).
The cells are then centrifuged and the supernatants are recovered and frozen at −80° C. until the time of the assay. The cells are then lysed. The β-hexosaminidase activity is measured in the supernatant and also in the cell pellet as described by Schwartz and Austen, J Invest Dermatol., 74, 349-353, 1980.
The hydrolysis of p-nitrophenyl-2-acetamido-2-deoxy-β-D-glucopyranoside (or 4-nitrophenyl-N-acetyl-β-D-glucosaminide) by β-hexosaminidase leads to the release of a chromophore product: p-nitrophenol. The latter is measured by spectrophotometry at 405 nm. • 50 μl of p-nitrophenyl-2-acetamido-2-deoxy-β-D-glucopyranoside (Sigma) are added to 5 μl of supernatant • Incubation for 2 hours at 37° C. with stirring. • Addition of 150 μl of stop solution (7.5 g of glycine in 500 ml of H2O, pH=10.7). Reading at 405 nm.

[2] = tested on: cells of the ROSA KIT WT line; experiment: Membrane CD203c expression after stimulation (flow cytometry); format: cell-based, human; conditions: cells treated with IL-4 + IgE 5 days; anti-IgE 5 or 10 μg/ml or calcium ionophore 1 μmol/l, 1 hour
Procedure: In order to know whether the cells of the ROSA KIT WT line can be activated by the IgE-anti-IgE antibody coupling, resulting in degranulation with immediate release of histamine and of β-hexosaminidase associated with a significant increase in membrane CD203c expression and with delayed release of TNF-alpha, cells are treated with IL-4 (20 ng/ml) and IgE (2 μg/ml) (Merck Bioscience) for 5 days and then stimulated with anti-IgE (5 or 10 μg/ml) (Biovalley) or with the calcium ionophore (Cai) (Sigma) (1 μmol/l) for 1 or 6 hours. The 1 hour supernatant and also the pellet are used to assay the histamine and to measure the expression of CD203c at the cell surface, while the TNF-alpha is measured by a specific ELISA method in the supernatant of the cells after 6 hours of stimulation.
One ml of cells treated with IL-4 (20 ng/ml) and IgE (2 μg/ml) for 5 days are washed twice with 3 ml of PBS and then again placed in culture medium at a concentration of 1×10^6 cells/ml. These cells are then stimulated with anti-IgE (5 or 10 μg/ml) or with the calcium ionophore (Cai) (1 μmol/l) for 1 hour. The cells are washed with PBS and put back into 100 μl of PBS, 1% FCS in the presence of an antibody directed against human CD203c, coupled to phycoerythrin (PE) (20 μl/l million cells) (Biolegend).

[3] = in therapy; cited from earlier work
ROSA KIT WT line = experiment: Proliferation of ROSA KIT WT line with tyrosine kinase inhibitors (WST-1); format: cell-based; conditions: 1 μM/l, 48 hours, medium with human SCF 80 ng/ml, relative to DMSO 0.1%
Procedure: (§1) Finally, the inventors evaluated the effect of two molecules which inhibit tyrosine kinase activity, imatinib and dasatinib (both supplied by Sequoia Research), on the proliferation of the 3 ROSA KIT WT, ROSA KIT D816V and ROSA KIT Delta 417-419 insY lines. To do this, the cells were seeded at a starting concentration of 3×10^5 cells per ml in 96-well plates (100 μl per well) and incubated at 37° C. in an incubator (5% CO2 in air) for 48 hours in the presence of 1 μM/l of imatinib or of dasatinib (in DMSO brought to a final concentration of 0.1%) or in the presence of DMSO alone (0.1% final concentration) in their usual culture medium (containing human SCF at 80 ng/ml for the ROSA KIT WT line but without SCF for the ROSA KIT D816V and ROSA KIT Delta 417-419 insY lines). At the end of this incubation, 10 μl of WST-1 (Roche Applied Science) are added to each well and the cells are incubated for a further 3 hours in an incubator at 37° C. The number of live cells is then measured for each condition by reading the absorbance at 450 nm using a Multiskan MS plate reader (Thermo LabSystems).
(§2) The results obtained for each line (presented in FIG. 15) are expressed as % of live cells (the condition DMSO alone at 0.1% final concentration being considered to contain 100% of live cells).

[4] = tested on: ROSA KIT Delta 417-419 insY line; experiment: Proliferation of ROSA KIT Delta 417-419 insY line with tyrosine kinase inhibitors (WST-1); format: cell-based, human; conditions: 1 μM/l, 48 hours, without SCF, relative to DMSO 0.1%
Procedure: as §1, §2

ROSA KIT D816V line = experiment: Proliferation of ROSA KIT D816V line with tyrosine kinase inhibitors (WST-1); format: cell-based, human; conditions: 1 μM/l, 48 hours, without SCF, relative to DMSO 0.1%
Procedure: as §1, §2

[5] = tested on: HMC-1, subclone HMC-1.1 (KIT V560G); conditions: juxtamembrane KIT V560G mutation; cited from earlier work
[6] = tested on: subclone HMC-1.2 (KIT V560G and D816V); conditions: two KIT mutations (V560G and D816V); cited from earlier work
KIT D816V mutation = KIT D816V mutation (Homo sapiens, UniProt P10721, D816V); conditions: cited from earlier work
[7] = tested on: cells of the ROSA KIT WT line; experiment: FcεRI and KIT expression after IL-4 treatment (flow cytometry); format: cell-based, human; conditions: IL-4 20 ng/ml for 5 days
Procedure: Since it has been shown in the literature that interleukin-4 (IL-4) induces a decrease in KIT expression and an increase in FcεR1 expression by normal human mast cells, the inventors wanted to verify whether this phenomenon could also be observed on the ROSA KIT WT line. For this, they used the following technique: • 10 ml of cells in culture at approximately 2×10^5 cell/ml are used for each tube. • The cells are centrifuged and the pellet is taken up in 10 ml of new culture medium and then the cells are treated with IL-4 (20 ng/ml) (R&D) for 5 days. • The cells are centrifuged in order to remove the culture medium. • The pellets are taken up in 100 μl of PBS+1% FCS, and incubated for 45 min at +4° C. in the presence of anti-human IgE antibody coupled to FITC (20 μl/l million cells (Merck Bioscience)), or in the presence of anti-human KIT antibody coupled to APC (20 μl/l million cells) (Biolegend). • Two rinses are carried out in 3 ml of PBS, 0.1% FCS, and then the tubes are centrifuged. • The pellets are collected in 300 μl of PBS, 0.1% FCS.
The reading is carried out by FACS (BD FACSCalibur).

[8] = tested on: ROSA KIT WT, ROSA KIT Delta 417-419 insY and KIT D816V lines; experiment: Membrane marker expression in the three ROSA lines (flow cytometry); format: cell-based, human; conditions: IL-4 20 ng/ml
Source text: Moreover, the expression of certain membrane markers present on the cells of the ROSA KIT Delta 417-419 insY and KIT D816V lines, optionally present in the presence of SCF, was studied by flow cytometry, this expression being compared with that of the cells of the ROSA KIT WT line. The results obtained (presented in FIG. 12) were the following: • the cells of the ROSA KIT Delta 417-419 insY and KIT D816V lines spontaneously express (in the absence of SCF) more CD38, CD203c and KIT than the cells of the ROSA KIT WT line, this increase in expression being completely abolished in the presence of SCF, • the cells of the KIT D816V line express more CD54 than the cells of the other two lines, whether in the absence or in the presence of SCF, • the cells of the KIT D816V line express more FcεR1 than the cells of the other two lines in the absence of SCF, this phenomenon being abolished by adding SCF, • the cells of the ROSA KIT Delta 417-419 insY and KIT D816V lines express, in the presence of SCF, more CD63 than the cells of the ROSA KIT WT line, this increase in expression being completely abolished in the absence of SCF, • the expression of CD53 and of FcεR1 is increased in the 3 lines by treatment with IL-4 (20 ng/ml), and • the expression of KIT is decreased in the three lines by treatment with IL-4 (20 ng/ml).

Chain of KIT D816V mutation (P10721 26-976 D816V): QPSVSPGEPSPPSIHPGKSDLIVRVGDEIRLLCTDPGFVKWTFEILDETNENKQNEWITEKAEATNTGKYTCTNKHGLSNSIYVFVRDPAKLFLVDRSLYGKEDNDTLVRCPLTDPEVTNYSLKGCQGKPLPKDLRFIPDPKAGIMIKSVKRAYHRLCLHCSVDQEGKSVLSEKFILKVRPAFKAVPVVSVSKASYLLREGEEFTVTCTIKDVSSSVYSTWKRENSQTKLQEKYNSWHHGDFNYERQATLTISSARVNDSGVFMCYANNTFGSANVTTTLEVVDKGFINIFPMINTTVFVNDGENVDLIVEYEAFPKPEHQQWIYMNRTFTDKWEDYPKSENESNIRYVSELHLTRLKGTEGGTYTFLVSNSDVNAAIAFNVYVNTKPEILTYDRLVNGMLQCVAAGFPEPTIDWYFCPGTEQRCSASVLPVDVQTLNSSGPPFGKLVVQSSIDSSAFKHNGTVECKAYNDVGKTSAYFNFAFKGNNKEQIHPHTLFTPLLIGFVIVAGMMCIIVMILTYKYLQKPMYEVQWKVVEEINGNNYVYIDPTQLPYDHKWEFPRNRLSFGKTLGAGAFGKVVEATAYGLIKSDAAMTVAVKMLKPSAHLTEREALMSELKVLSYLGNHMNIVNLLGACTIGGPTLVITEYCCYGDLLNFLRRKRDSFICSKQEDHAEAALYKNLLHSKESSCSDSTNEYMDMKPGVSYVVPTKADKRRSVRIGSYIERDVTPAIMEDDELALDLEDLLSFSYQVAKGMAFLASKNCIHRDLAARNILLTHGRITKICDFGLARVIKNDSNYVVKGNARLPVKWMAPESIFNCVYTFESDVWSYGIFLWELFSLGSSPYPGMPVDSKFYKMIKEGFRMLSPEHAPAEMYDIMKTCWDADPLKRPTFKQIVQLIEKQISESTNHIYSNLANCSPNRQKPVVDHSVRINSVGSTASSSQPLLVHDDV

Compound: CNc1ccc2oc(C[C@H]3O[C@@]4(CC[C@H]3C)O[C@H]([C@H](C)C(=O)c3ccc[nH]3)[C@H](C)C[C@H]4C)nc2c1C(=O)O [calcium ionophore, calcium ionophore A23187]
- β-hexosaminidase release, of the total enzyme content of the cells [1]: up to 80%
- membrane CD203c expression [2]: increase

Compound: Cc1nc(Nc2ncc(C(=O)Nc3c(C)cccc3Cl)s2)cc(N2CCN(CCO)CC2)n1 [dasatinib]
- toxicity in humans [3]: high toxicity

Compound: Cc1ccc(NC(=O)c2ccc(CN3CCN(C)CC3)cc2)cc1Nc1nccc(-c2cccnc2)n1 [imatinib]
- inhibition of proliferation (% of live cells) (ROSA KIT WT line): sensitive
- inhibition of proliferation (% of live cells) [4]: sensitivity
- inhibition of proliferation (% of live cells) ([4]; listed as Imatinib): sensitive
- inhibition of proliferation (% of live cells) (ROSA KIT D816V line): resistance; also recorded: incapable of inhibiting the proliferation
- sensitivity of the line [5]: sensitive
- sensitivity of the line [6]: not
- activity on the KIT D816V mutation (KIT D816V mutation): completely inactive

Compound: IL-4: interleukin-4 cytokine (R&D)
- KIT expression [7]: decrease
- expression of the high-affinity IgE receptor [7]: increase
- expression of CD53 ([8]; in the 3 lines): increased
- expression of FcεR1 ([8]; in the 3 lines): increased
- expression of KIT ([8]; in the three lines): decreased
